The values below are quoted from earlier work in EP4052553A1, “AGRICHEMICAL COMPOSITION FOR TREATING SEEDS AND USE THEREOF” (priority 2019, dated 2021).

For this series the following is noted: distilled water at 20°C.
With `CO/N=C(/C)c1cccc(Oc2nc(OC)cc(OC)n2)c1C(=O)OC` [pyriminobac-methyl], the aqueous solubility is 9.3 ppm.

Regarding `CS(=O)(=O)c1ccc(C(=O)C2=C(Sc3ccccc3)C3CCC(C3)C2=O)c(Cl)c1` (stereo not drawn) [benzobicyclon], the aqueous solubility is on record as 0.052 ppm.

For `COc1cc(OC)nc(NC(=O)NS(=O)(=O)Nc2ccccc2C(=O)C2CC2)n1` [cyclosulfamuron], the aqueous solubility is reported as 0.34 ppm.

`COc1cc(OC)nc(Oc2cccc(Oc3nc(OC)cc(OC)n3)c2C(=O)ON=C(c2ccccc2)c2ccccc2)n1` [pyribenzoxim]: the aqueous solubility was 3.5 ppm. On to `COc1ccc(-n2c(=O)c(C(=O)C3C(=O)CCCC3=O)nc3c(Cl)cccc32)cc1` [fenquinotrione], for which the aqueous solubility was 17 ppm. `CCOC(=O)c1ccccc1S(=O)(=O)NC(=O)Nc1nc(Cl)cc(OC)n1` [chlorimuron-ethyl]: the aqueous solubility is listed as 8.6 ppm. Take `CCOC(=O)c1cnn(C)c1S(=O)(=O)NC(=O)Nc1nc(OC)cc(OC)n1` [pyrazosulfuron-ethyl]: the aqueous solubility is recorded as 9.8 ppm. With `C[C@@H](Oc1ccc(Oc2nc3ccc(Cl)cc3o2)cc1)C(=O)N(C)c1ccccc1F` [metamifop], the aqueous solubility is given as 0.69 ppm. Turning to `COc1nc(OC)nc(C(=O)c2cccc(F)c2N(C)S(=O)(=O)C(F)F)n1` [triafamone], the aqueous solubility was 41 ppm.

On to `Cc1ccc(C(=O)COc2c(C(=O)c3ccc(Cl)c(C)c3Cl)c(C)nn2C)cc1` [benzofenap], for which the aqueous solubility was 0.12 ppm. As for `COCc1cccc(C(O)c2nc(OC)cc(OC)n2)c1NS(=O)(=O)C(F)F` (stereo not drawn) [pyrimisulfan], the aqueous solubility is 87 ppm. Take `C#CCN(C)c1c(C#N)cnn1-c1nn2c(c1Cl)CCCC2` [pyraclonil]: the aqueous solubility is recorded as 50.1 ppm. As to `COC(=O)c1c(Cl)nn(C)c1S(=O)(=O)NC(=O)Nc1nc(OC)cc(OC)n1` [halosulfuron-methyl], the aqueous solubility was 10.2 ppm. For `CCCc1ccc2nc(Cl)c(S(=O)(=O)NC(=O)Nc3nc(OC)cc(OC)n3)n2n1` [propyrisulfuron], the aqueous solubility is on record as 0.98 ppm. In the case of `COc1cc(OC)nc(Sc2cccc3c2C(=O)OC3C)n1` (stereo not drawn) [pyriftalid], the aqueous solubility is recorded as 1.8 ppm.

Regarding `CC(C)=C1OC(=O)N(c2cc(OC3CCCC3)c(Cl)cc2F)C1=O` [pentoxazone], the aqueous solubility is reported as 0.22 ppm. On to `CCCOCCN(C(=O)CCl)c1c(CC)cccc1CC` [pretilachlor], for which the aqueous solubility is recorded as 74 ppm. For `CCC(CC)Nc1c([N+](=O)[O-])cc(C)c(C)c1[N+](=O)[O-]` [Pendimethalin], the aqueous solubility is recorded as 0.26 ppm.
